These results are taken from ChEMBL document CHEMBL1125167, “Synthesis and broad-spectrum antiviral activity of 7,8-dihydro-7-methyl-8-thioxoguanosine” (1990).

Molecules are shown by their SMILES.

Assay [1] relates to Banzi virus. As to the kind of experiment: Indicates the number of animals that died and survivors lived through 21 days at 25 mg/kg against Banzi virus. It is filed as functional.
The subject of assay [2] is Encephalomyocarditis virus. As to the kind of experiment: Indicates the number of animals that died and survivors lived through 21 days at 50 mg/kg against EMC virus. In kind it is functional.
A short description of assay [3]: Evaluated for its effect by the ratio between percent survivors and the total animals taken against EMC virus infection at a dose of 25 mg/kg half-daily intraperitoneal doses at 24 and 18 hours before the virus inoculation; 6/12. In kind it is functional.
Assay [4] is described as follows: Evaluated for its effect by the ratio between percent survivors and the total animals taken against San Angelo virus infection at a dose of 50 mg/kg half-daily intraperitoneal doses at 24 and 18 hours before the virus inoculation; 10/12. In kind it is functional.
The subject of the next assay is Coronaviridae. As to the kind of experiment: Indicates the number of animals that died and survivors lived through 21 days at 100 mg/kg rat corona virus. It is filed as functional, Coronavirus.
Assay [5] relates to San Angelo virus. As to the kind of experiment: Indicates the number of animals that died and survivors lived through 21 days at 50 mg/kg against San Angelo virus. It is filed as functional.
In assay [6] the test system is Semliki Forest virus. As to the kind of experiment: Indicates the number of animals that died and survivors lived through 21 days at 50 mg/kg against Forest virus. In kind it is functional.
Assay [7] can be described thus: Evaluated for its effect by the ratio between percent survivors and the total animals taken against Banzi virus infection at a dose of 50 mg/kg half-daily intraperitoneal doses at 24 and 18 hours before the virus inoculation; 10/12. In kind it is functional.
A short description of assay [8]: Evaluated for its effect by the ratio between percent survivors and the total animals taken against Forest virus infection at a dose of 50 mg/kg half-daily intraperitoneal doses at 24 and 18 hours before the virus inoculation; 10/12. It is filed as functional.
Assay [9] deals with Encephalomyocarditis virus. As to the kind of experiment: Indicates the number of animals that died and survivors lived through 21 days at 25 mg/kg against EMC virus. It is filed as functional.
Assay [10] is described as follows: Evaluated for its effect by the ratio between percent survivors and the total animals taken against San Angelo virus infection at a dose of 25 mg/kg half-daily intraperitoneal doses at 24 and 18 hours before the virus inoculation; 9/12. In kind it is functional.
A short description of assay [11]: Evaluated for its effect by the ratio between percent survivors and the total animals taken against Banzi virus infection at a dose of 25 mg/kg half-daily intraperitoneal doses at 24 and 18 hours before the virus inoculation; 11/12. In kind it is functional.
Assay [12] relates to Semliki Forest virus. As to the kind of experiment: Indicates the number of animals that died and survivors lived through 21 days at 25 mg/kg against Forest virus. It is filed as functional.
Assay [13] is described as follows: Evaluated for its effect by the ratio between percent survivors and the total animals taken against EMC virus infection at a dose of 50 mg/kg half-daily intraperitoneal doses at 24 and 18 hours before the virus inoculation; 9/12. In kind it is functional.
A short description of assay [14]: Evaluated for its effect by the ratio between percent survivors and the total animals taken against rat corna virus infection at a dose of 100 mg/kg half-daily intraperitoneal doses at 24 and 18 hours before the virus inoculation; 7/12. In kind it is functional.
Assay [15] is described as follows: Evaluated for its effect by the ratio between percent survivors and the total animals taken against Forest virus infection at a dose of 25 mg/kg half-daily intraperitoneal doses at 24 and 18 hours before the virus inoculation; 9/12. It is filed as functional.
In assay [16] the test system is San Angelo virus. As to the kind of experiment: Indicates the number of animals that died and survivors lived through 21 days at 25 mg/kg against San Angelo virus. In kind it is functional.
Assay [17] has as its system Banzi virus. As to the kind of experiment: Indicates the number of animals that died and survivors lived through 21 days at 50 mg/kg against Banzi virus. It is filed as functional.
The nature of assay [18]: Ratio between percent survivors and the total animals taken against EMC virus infection at a dose of 25 mg/kg half-daily intraperitoneal doses at 24 and 18 hours before the virus inoculation; 8/12. In kind it is functional.
A short description of assay [19]: Ratio between percent survivors and the total animals taken against Banzi virus infection at a dose of 50 mg/kg half-daily intraperitoneal doses at 24 and 18 hours before the virus inoculation; 12/12. It is filed as functional.
Assay [20] is described as follows: Ratio between percent survivors and the total animals taken against San Angelo virus infection at a dose of 25 mg/kg half-daily intraperitoneal doses at 24 and 18 hours before the virus inoculation; 11/12. In kind it is functional.
Assay [21] can be described thus: Ratio between percent survivors and the total animals taken against rat corona virus infection at a dose of 100 mg/kg half-daily intraperitoneal doses at 24 and 18 hours before the virus inoculation; 9/12. In kind it is functional.
A short description of assay [22]: Ratio between percent survivors and the total animals taken against Forest virus infection at a dose of 25 mg/kg half-daily intraperitoneal doses at 24 and 18 hours before the virus inoculation; 8/12. In kind it is functional.
Assay [23] can be described thus: Ratio between percent survivors and the total animals taken against Forest virus infection at a dose of 50 mg/kg half-daily intraperitoneal doses at 24 and 18 hours before the virus inoculation; 9/12. In kind it is functional.
Assay [24] is described as follows: Ratio between percent survivors and the total animals taken against Banzi virus infection at a dose of 25 mg/kg half-daily intraperitoneal doses at 24 and 18 hours before the virus inoculation; 11/12. In kind it is functional.
Assay [25] in a line: Ratio between percent survivors and the total animals taken against San Angelo virus infection at a dose of 50 mg/kg half-daily intraperitoneal doses at 24 and 18 hours before the virus inoculation; 11/12. It is filed as functional.
The nature of assay [26]: Ratio between percent survivors and the total animals taken against EMC virus infection at a dose of 50 mg/kg half-daily intraperitoneal doses at 24 and 18 hours before the virus inoculation; 9/12. In kind it is functional.

For the molecule `Cn1c(=S)n(C2O[C@H](CO)[C@@H](O)[C@H]2O)c2nc(N)nc(O)c21` (stereo partly specified), the Mean survival time with Banzi virus [1] was found to be 9 days; in assay [2] it was 5.7 days; with Coronaviridae, 9.4 days; in the assay with San Angelo virus [5], 10.5 days; with Semliki Forest virus [6] it was 9 days; in [9] it was 5.5 days. Further, the Mean survival time in the assay on Semliki Forest virus [12] was 8 days; in the assay with San Angelo virus [16] it was 11.3 days; in the assay with Banzi virus [17], 9 days. Besides, the Ratio in [3] was 6; in [4], 10; in assay [7], 10; in assay [8] it was 10; in assay [10], 9; in [11] it was 11. The figures for the Ratio in assay [13], in assay [14] and in [15] were 9, 7 and 9, respectively.
For `Cn1c(=O)n(C2O[C@H](CO)[C@@H](O)[C@H]2O)c2nc(N)nc(O)c21` (stereo partly specified), the Ratio is listed as 8 in assay [18]; 12 in assay [19]; 11 in assay [20]; 9 in assay [21]; 8 in assay [22]; 9 in [23]. Besides, the Ratio was 11 in [24], 11 in [25] and 9 in assay [26]. In addition, the Mean survival time in the assay on Banzi virus [1] was 8 days; in assay [2], 8 days; with Coronaviridae, 9.7 days; in the assay on San Angelo virus [5], 10 days; with Semliki Forest virus [6], 9.7 days; in [9] it was 8.3 days. In addition, the Mean survival time is 8.7 days in the assay with Semliki Forest virus [12], 12 days in the assay with San Angelo virus [16] and over 21 days in the assay on Banzi virus [17].
